Laboratory results from publication PMC3348258 (Nature, 2012).
Where “and” joins values, the source holds several entries; their conditions need not be identical. Equal entries are not always repeated.

Experiments:
[1] = tested on: BK α subunits coexpressed with construct D20A; assay: Effect of pore blockers on β3a-mediated tail currents; type: cell-based, mSlo1 (mouse) with human β3a N-terminus on human β2; conditions: 10 μM Ca^2+; TBA 2 or 10 mM; bbTBA 200 and 400 μM
open BK channels = conditions: read-out: blocking affinity / Kd(0) for block of open BK channels; cited from earlier work
Shaker K^+ channels = conditions: cited from earlier work

For `CCCC[N+](CCCC)(CCCC)CCCC` [TBA, tetrabutylammonium], the “effect on β3a-mediated tail currents” value [1] is given as “both peak tail current and tail current time constant were reduced” and the Kd (open BK channels) is given as 900 µM and ~900 µM.
For `CC[N+](CC)(CC)CC` [TEA, tetraethylammonium], the “effect on inactivation onset” value (Shaker K^+ channels) is given as “slow inactivation onset”.
